Test results: patent US9949956B2, “Compounds, compositions, and methods for preventing metastasis of cancer cells” (Aerpio Therapeutics, Inc., priority 2009, dated 2018)
Where “and” joins values, the source holds several entries; their conditions need not be identical. Identical values can stand only once.

What was measured:
[1] = tested on: H460-GFP human tumor cells; assay: In vivo anti-metastasis study, surgical orthotopic implantation of H460-GFP tumor fragments on the lung; design: species or system NCr nu/nu male mice; details: for Evidence of Metastasis (individual mouse): mice No. 1-10; for # mice with metastases: ten mice per group
Protocol: A total of 50 NCr nu/nu male mice aged 5-6 weeks were selected for the following in vivo test. H460-GFP human tumor cells were grown subcutaneously in NCr nu/nu male mice after which the resulting tumors were harvested. Subsequent to harvesting, recipient NCr nu/nu mice of this study had tumor fragments transplanted by surgical orthotopic implantation (SOI). Each animal was anesthetized is isofurane and the surgical area was sterilized with iodine and alcohol. A transverse incision approximately 1.5 cm long was made in the left chest wall of the mice using a pair of surgical scissors. An intercostal incision was made between the third and the fourth costa and the left lung was exposed. Two pieces of H460-GFP tumor fragments were transplanted to the surface of the lung with 8-0 surgical nylon suture. […]. The lung was re-inflated by the intrathoracic puncture using 3 cc syringe with 25 G 11⁄2 needle to draw out the remaining air in the chest cavity. The chest wall was closed with 6-0 surgical silk sutures. All procedures of the operation described above were performed with a 7× magnification microscope (Olympus) under HEPA filtered laminar flow hoods. The treated mice were divided into five groups containing ten mice each. Group I (Control) received 100 μL the drug vehicle twice daily for 15 days. Group II received 15 mg/kg of taxol intravenously at days 6, 9, 12, and 15. […] Group IV received 10 mg/kg of taxol intravenously at days 6, 9, 12, and 15 and 15 mg/kg of the Test Compound twice per day from day 3 to day 15. Group V received 15 mg/kg of the Test Compound twice per day from day 3 to day 15. All animals were sacrificed on day 28. Each animal was checked twice a week for primary tumor and metastasis via GFP open imaging of the mediastinal lymph nodes. No metastasis was found on any other organs. Six mice from the control group died before the end of the study, but were evaluated for tumor and/or cellular metastasis.

[2] = tested on: MiaPaCa-2-RFP tumor fragments; assay: In vivo pancreatic cancer study, surgical orthotopic implantation of MiaPaCa-2-RFP tumor fragments; design: species or system NCr nu/nu males; details: FIG. 9
From the text: The effectiveness of the disclosed compounds as a treatment for pancreatic cancer was investigated. 60 NCr nu/nu males, 5-6 weeks old were transplanted by surgical orthotopic implantation (SOI) using MiaPaCa-2-RFP tumor fragments harvested from stock animals. The animals were anesthetized with isoflurane and the surgical area was sterilized using iodine and alcohol. An incision approximately 1.5 cm long was made in the left upper abdomen of the nude mouse using a pair of surgical scissors. […] The abdomen was closed with 6-0 surgical sutures (silk). All procedures of the operation described above were performed with a 7× magnification microscope (Olympus) under HEPA filtered laminar flow hoods. Dosing of the animals began three days following tumor implantation. The high dose of gemcitabine was 150 mg/kg. The low dose of gemcitabine was 100 mg/kg. […] was given at 20 mg/kg. […] The animals were divided into the following groups often animals each as depicted in Table XXII.

B16 melanoma cells = assay: In vivo anticancer study, B16 melanoma; design: species or system C57BL/6 mice
Protocol: The effectiveness of the disclosed compounds as a treatment for melanoma was studied. C57BL/6 mice (6-8 weeks-old, female, Taconic Farm) were inoculated with B16 melanoma cells (5×10^4 cells/site, s.c.). […] Tumor volumes were recorded. […] Tumor volumes were recorded.

Renca renal cancer cells = assay: In vivo anticancer study, renal cell carcinoma (Renca); design: species or system Balb/c mice; details: FIG. 1 and FIG. 2
Protocol: The effectiveness of the disclosed compounds as a treatment against renal cell carcinoma was studied. Balb/c mice (6-8 weeks-old, female, Taconic Farm) were inoculated with Renca renal cancer cells (5×10^5 cells/site). […] Tumor volumes were recorded.

SMILES | Evidence of Metastasis (individual mouse) ([1]; Group V: D91 15 mg/kg twice per day, day 3 to 15, 15 mg/kg) | # mice with metastases ([1]; Group V: D91 15 mg/kg twice per day, day 3 to 15) | pancreatic tumor volume ([2]; D91 20 mg/kg s.c. twice daily alone, day 28) | tumor volume ([2]; combination of low dose gemcitabine (100 mg/kg i.p.) and 20 mg/kg D91, compared with either alone) | B16 melanoma tumor volume (B16 melanoma cells; 40 mg/kg b.i.d. D91 alone versus vehicle control, FIG. 8) | tumor volume (B16 melanoma cells; high dose of IL-2 (300,000 IU/mouse, bid, i.p.) in combination with high dose of D91 (40 mg/kg, bid, s.c.), compared to high dose IL-2 alone, FIG. 3) | tumor volume (B16 melanoma cells; low dose of IL-2 (100,000 IU/mouse, bid, i.p.) in combination with high dose of D91 (40 mg/kg, bid, s.c.) versus control, FIG. 6) | reducing tumor volume, compared with IL-2 (Renca renal cancer cells; D91 40 mg/kg bid s.c. versus IL-2 100,000 IU/mouse bid i.p.) | renal tumor growth (Renca renal cancer cells; D91 40 mg/kg, bid, s.c. alone) | tumor volume (Renca renal cancer cells; combination of D91 (40 mg/kg, bid, s.c.) and IL-2 (100,000 IU/mouse, bid, i.p.)) | Evidence of Metastasis (individual mouse) ([1]; Group II: taxol 15 mg/kg i.v. at days 6, 9, 12, 15, GFP open imaging of mediastinal lymph nodes) | # mice with metastases ([1]; Group II: taxol 15 mg/kg i.v. at days 6, 9, 12, 15)
COC(=O)N[C@@H](Cc1ccccc1)C(=O)N[C@@H](Cc1ccc(NS(=O)(=O)O)cc1)c1csc(-c2cccs2)n1 [D91, 4-{(S)-2-[(S)-2-(Methoxycarbonylamino)-3-phenylpropanamido]-2-[2-(thiophen-2-yl)thiazol-4-yl]ethyl}phenylsulfamic acid] | Yes (2×) and No (8×) | 2 | significant reduction in pancreatic tumor volume | greater reduction in tumor volume | effectiveness | significantly reduced tumor volume as compared to high dose of IL-2 | significantly reduced tumor volume versus control | as effective as IL-2 in reducing tumor volume | significantly reduced renal tumor growth | further reduced tumor volume | – | –
CC(=O)O[C@H]1C(=O)[C@@]2(C)[C@H]([C@H](OC(=O)c3ccccc3)[C@]3(O)C[C@H](OC(=O)[C@H](O)[C@@H](NC(=O)c4ccccc4)c4ccccc4)C(C)=C1C3(C)C)[C@]1(OC(C)=O)CO[C@@H]1C[C@@H]2O [taxol, reference compound] | – | – | – | – | – | – | – | – | – | – | No (9×) and Yes | 1
